“And” between values parts separate entries of the source, which are not always exact repeats. Identical values can stand only once.
Key:
[1] = test system: Staphylococcus aureus (ATCC 25923); experiment: Staphylococcus aureus sensitivity to nitrocefin in the presence of PSMα (growth curves, OD 600 nm); type: cell-based; details: nitrocefin 100 µg/mL, LB, 37 °C, 16 h
Experimental: The antimicrobial activity of nitrocefin against Staphylococcus aureus (ATCC 25923) was examined in the presence or absence of pre-assembled PSMα3, while monitoring the growth of the bacterial strain. PSMα3 fibrils were prepared as described above, in aqueous solution, in concentration of 100 µM. The bacterial growth was monitored in bacterial growth curves prepared as following: 3 µL of S. aureus microbial culture (OD = 1) were added to 100 µL LB media (Difco Luria-Bertani medium, BD, France). The bacterial solution was supplemented with 100 µM of the PSMα3 solution (dissolved and preincubated in DIW) or equivalent volume of DIW as a control. Then, aqueous solution of nitrocefin was added to each sample, generating final concentration of 100 µg/mL. As control, the growth curve of S. aureus was examined without any additives. All the samples were incubated while shaking in sterile clear 96-well plates at 37 °C for 16 h, and the absorbance at 600 nm was monitored every 20 min steps by microplate reader (Varioskan Flash, Thermo Scientific, Waltham, MA). Measurements were performed at three biological replicates, each with five technical replicates. The values were plotted in the graph as mean ± SD of representative results.
Figure S15. The effects of PSMα1 and PSMα4 upon nitrocefin in physiological scenarios. […]

[2] = type: physicochemical; details: PSMα3 preformed fibrils 400 µM, titration pH 3 to 10 with NaOH 0.05M (Fig. S10)
[3] = Nitrocefin hydrolysis kinetics (absorbance of degraded nitrocefin at 480 nm; initial rates V0, Michaelis-Menten fit); type: biochemical; parameters: Initial nitrocefin-degradation reaction rate, V0: unit not given here; details: for Initial nitrocefin-degradation reaction rate, V0: Hepes pH 7.4, average of the six runs
Procedure, shortened: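 Nitrocefin (up to 360 µM, diluted on ice in 50 mM Hepes pH 7.4) mixed with pre-incubated PSMα (510 µM solution); A480 read every 20 s for 2 h at 20 °C. V0 from first 15 min slopes, blank self-hydrolysis subtracted, fitted to Michaelis–Menten by non-linear regression; mean ± SEM, ≥5 repeats.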

[4] = type: biochemical; details: Aβ42 fibrils 100 µM, nitrocefin 170 µM, A480, two hours (Fig. S2)
a2-PEG17K = test system: T1, a2-PEG17K; experiment: Source-data fits for PSMα variants (170 µM): initial rates of nitrocefin hydrolysis (up to 240 µM) by absorbance at 480 nm in 50 mM Hepes pH 7.4 at 20 °C.; type: biochemical; details: read-out: Km [uM] (AVG, source data sheet 2c,d_titration of nitrocefin)
T1 construct: synthetic peptide, pre-assembled; modification not described beyond the name
Experimental: Nitrocefin, a β-lactam widely used as a surrogate substrate of Penicillin in β-lactamase activity assay, was used as a substrate. NC degradation was monitored for 2 h. Nitrocefin stock solution was dissolved in acetonitrile (20 mM) and then diluted with Hepes buffer (50 mM, pH 7.4) to nitrocefin concentration of 360 µM (further dilutions to lower concentrations were made with the 360 µM NC stock). All nitrocefin samples were kept on ice in cold conditions and any further dilution or mixing was performed in ice-cold conditions to avoid self-hydrolysis background reaction. […] Immediately after mixing the samples, the plate was transferred to 20̊ °C pre-cooled plate reader (Multiskan GO, Thermo Scientific, Waltham, MA) and shaken slowly for 10 s. Then, the absorbance of degraded nitrocefin was measured for 2 h at interval of 20 s at λ = 480 nm. Initial production rates (V0) were calculated by slope of the initial linear range of degraded-nitrocefin production at the first 15 min. […] The initial rate calculations were performed while also subtracting the self-degradation of the substrate, to ensure that this product absorbance is a result of PSMα presence.
The initial rates of degraded-nitrocefin production were calculated from the slopes of the first 15 min of measurement as reported above. […]

Compound: O=C(Cc1cccs1)N[C@@H]1C(=O)N2C(C(=O)O)=C(C=Cc3ccc([N+](=O)[O-])cc3[N+](=O)[O-])CS[C@H]12 [nitrocefin, 3-(2,4-Dinitrostyryl)-(6R, 7R)−7-(2-thienylacetamido)-ceph-3-em-4-carboxylic Acid]
- effect of nitrocefin on bacterial growth [1]: significantly reduced bacterial proliferation

Compound: CSCC[C@H](N)C(=O)N[C@@H](CCC(=O)O)C(=O)N[C@@H](Cc1ccccc1)C(=O)N[C@H](C(=O)N[C@@H](C)C(=O)N[C@@H](CCCCN)C(=O)N[C@@H](CC(C)C)C(=O)N[C@@H](Cc1ccccc1)C(=O)N[C@@H](CCCCN)C(=O)N[C@@H](Cc1ccccc1)C(=O)N[C@@H](Cc1ccccc1)C(=O)N[C@@H](CCCCN)C(=O)N[C@@H](CC(=O)O)C(=O)N[C@@H](CC(C)C)C(=O)N[C@@H](CC(C)C)C(=O)NCC(=O)N[C@@H](CCCCN)C(=O)N[C@@H](Cc1ccccc1)C(=O)N[C@@H](CC(C)C)C(=O)NCC(=O)N[C@@H](CC(N)=O)C(=O)N[C@@H](CC(N)=O)C(=O)O)C(C)C [PSMα3]
- ATR-FTIR amide-I peak/maximum: 1660 cm⁻¹ and 1650 cm⁻¹
- pKa of the amines (first value) [2]: 7.8
- pKa of the amines (second value) [2]: 8.1
- Initial nitrocefin-degradation reaction rate, V0 ([3]; PSMα 4.01424 uM, nitrocefin 60 µM): 0.4242
- Initial nitrocefin-degradation reaction rate, V0 ([3]; PSMα 6.02136 uM, nitrocefin 60 µM): -0.2476
- Initial nitrocefin-degradation reaction rate, V0 ([3]; PSMα 9.03205 uM, nitrocefin 60 µM): 0.6132
- Initial nitrocefin-degradation reaction rate, V0 ([3]; PSMα 13.5481 uM, nitrocefin 60 µM): 1.028
- Initial nitrocefin-degradation reaction rate, V0 ([3]; PSMα 20.3221 uM, nitrocefin 60 µM): 0.7515
- Initial nitrocefin-degradation reaction rate, V0 ([3]; PSMα 30.4832 uM, nitrocefin 60 µM): -1.835
- Initial nitrocefin-degradation reaction rate, V0 ([3]; PSMα 45.7247 uM, nitrocefin 60 µM): 5.684
- Initial nitrocefin-degradation reaction rate, V0 ([3]; PSMα 68.5871 uM, nitrocefin 60 µM): 8.525
- Initial nitrocefin-degradation reaction rate, V0 ([3]; PSMα 102.881 uM, nitrocefin 60 µM): 29.1642
- Initial nitrocefin-degradation reaction rate, V0 ([3]; PSMα 154.321 uM, nitrocefin 60 µM): 32.1116
- Initial nitrocefin-degradation reaction rate, V0 ([3]; PSMα 231.481 uM, nitrocefin 60 µM): 46.236
- Initial nitrocefin-degradation reaction rate, V0 ([3]; PSMα 347.222 uM, nitrocefin 60 µM): 69.7594
- nitrocefin degradation yield (turnover) ([3]; nitrocefin 60 µM, PSMα assemblies 350 µM, Hepes 50 mM pH 7.4, 20 °C, A480, monitored 2 h (Fig. 2a)): 75%
- initial rate of nitrocefin degradation reaction (V0) ([3]; peptide 170 µM, initial nitrocefin 107 µM, Hepes 50 mM pH 7.4, 20 °C, first 15 min (Fig. 3f)): around 60 µM/h
- time to degrade the entire nitrocefin reservoir ([3]; peptide 170 μM, nitrocefin 107 µM, Hepes pH 7.4 (Fig. 3e)): ~ 40 min

Compound: β-amyloid fibrils: Amyloid-β sequence 1-42 fibrils, control cross-β amyloid
- β-lactam (nitrocefin) degradation by control amyloid [4]: very low β-lactam degradation

Compound: O=C(Cc1cccs1)N[C@@H]1C(=O)N2C(C(=O)O)=C(/C=C/c3ccc([N+](=O)[O-])cc3[N+](=O)[O-])CS[C@H]12 [nitrocefin, 3-(2,4-Dinitrostyryl)-(6R,7R)-7-(2-thienylacetamido)-ceph-3-em-4-carboxylic acid]
- Km (a2-PEG17K): 2740 µM

From paper PMC10713593, “Staphylococcus aureus functional amyloids catalyze degradation of β-lactam antibiotics” (Nature Communications, 2023)
